Results taken from patent publication US20250281464A1, “TREATMENT OF PATHOGENIC NEISSERIA SP. INFECTION WITH TRIAZOLE ANTIFUNGAL AGENTS” (Virginia Tech Intellectual Properties, Inc., priority 2022, published 2025).
Values after ≈ are worked out from the molar mass of the structure shown. Where two headings read alike, the source gives them in different places.

Assays:
N. meingitidis = assay: MIC against Neisseria spp.; format: cell-based, Neisseria meningitidis; settings: N. meingitidis (5 strains)
L. johnsonii = assay: MIC against commensal vaginal Lactobacillus strains; format: cell-based, Lactobacillus johnsonii
From the text: (§1) N. gonorrhoeae pathogenesis greatly depends on colonization of the reproductive tract. One of the natural barriers of such colonization is an intact healthy microbiome. Species of lactobacilli present in the genitourinary tract play a significant role in hindering colonization by Neisseria(1).
(§2) A healthy vaginal microbiome that is dominated by Lactobacillus spp. is less susceptible to N. gonorrhoeae infection and other sexually transmitted diseases (STDs). […] We tested the activity of azoles against important members of healthy vaginal microbiota that inhibit N. gonorrhoeae colonization.

L. jensenii = assay: as above; format: cell-based, Lactobacillus jensenii; settings: for MIC: Lactobacillus jensenii
From the text: as §1, §2

Staphylococcus aureus = assay: MIC against normal gut microbiota; format: cell-based; settings: Staphylococcus aureus (1 strain)
From the text: (§3) Disrupting the intestinal microbiota using broad-spectrum antimicrobial therapy increases the susceptibility of hosts to C. difficile colonization.

[1] = MIC against normal gut microbiota; format: cell-based
From the text: as §3

[2] = system: Bifidobacterium angulatum; assay: MIC against normal gut microbiota; format: cell-based; settings: Bifidobacterium angulatum (1 strain)
From the text: as §3

Lactobacillus casei = assay: MIC against normal gut microbiota; format: cell-based; settings: Lactobacillus casei (1 strain)
From the text: as §3

Lactobacillus rhamnosus = assay: MIC against normal gut microbiota; format: cell-based; settings: Lactobacillus rhamnosus (1 strain)
From the text: as §3

Bacteroides dorei = assay: MIC against normal gut microbiota; format: cell-based; settings: Bacteroides dorei (2 strains)
From the text: as §3

Escherichia coli = assay: MIC against normal gut microbiota; format: cell-based; settings: Escherichia coli (1 strain)
From the text: as §3

Enterococcus faecium = assay: MIC against normal gut microbiota; format: cell-based; settings: Enterococcus faecium (1 strain)
From the text: as §3

Enterococcus faecalis = assay: MIC against normal gut microbiota; format: cell-based; settings: Enterococcus faecalis (1 strain)
From the text: as §3

Lactobacillus brevis = assay: MIC against normal gut microbiota; format: cell-based; settings: Lactobacillus brevis (1 strain)
From the text: as §3

N. gonorrhoeae isolates = assay: MIC against panel of N. gonorrhoeae clinical isolates; format: cell-based, Neisseria gonorrhoeae; settings: for MIC50: read-out: MIC50; for MIC90: read-out: MIC90
[3] = system: resistant N. gonorrhoeae isolates; assay: MIC against resistant N. gonorrhoeae isolates by agar dilution; format: cell-based, Neisseria gonorrhoeae
N. lactamica = assay: MIC against Neisseria spp.; format: cell-based; settings: N. lactamica (1 strain)
From the text: (§4) Intrigued by the specificity and potent activity of azoles against N. gonorrhoeae, we evaluated the extent of the azoles' antibacterial activity against other Neisseria species (Table 8).

N. mucosa = assay: MIC against Neisseria spp.; format: cell-based; settings: N. mucosa (1 strain)
From the text: as §4

N. flavescens = assay: MIC against Neisseria spp.; format: cell-based; settings: N. flavescens (1 strain)
From the text: as §4

[4] = system: commensal vaginal lactobacilli strains; assay: MIC against all commensal vaginal Lactobacillus strains tested; format: cell-based, Lactobacillus spp.; settings: all species/strains of Lactobacillus tested (Example 2); read-out: MIC
From the text: as §1, §2

[5] = system: intracellular N. gonorrhoeae FA1090 in endocervical cells (End1/E6E7); settings: literature statement [1, 3, 5]; cited from earlier work
L. gasseri = assay: MIC against commensal vaginal Lactobacillus strains; format: cell-based, Lactobacillus gasseri; settings: for MIC: Lactobacillus gasseri
From the text: as §1, §2

N. gonorrhoeae = assay: Post-antibiotic effect (PAE) against N. gonorrhoeae; format: cell-based, Neisseria gonorrhoeae; settings: 1 h exposure at 10×MIC
From the text: Determining the PAE of a new antimicrobial is an important step for dosing and has clinical importance.

L. crispatus = assay: MIC against commensal vaginal Lactobacillus strains; format: cell-based, Lactobacillus crispatus; settings: for MIC: Lactobacillus crispatus
From the text: as §1, §2

[6] = Neisseria gonorrhoeae, Table 1, 104 N. gonorrhoeae isolates
[7] = Neisseria gonorrhoeae, Table 3, 103 N. gonorrhoeae isolates with different resistance profiles

Which results are given for `CO/N=C(\C(=O)N[C@@H]1C(=O)N2C(C(=O)O)=C(CSc3nc(=O)c(=O)[nH]n3C)CS[C@H]12)c1csc(N)n1` [Ceftriaxone]?
MIC Range (N. meingitidis): 0.004 to 0.008 µg/mL; MIC (L. johnsonii; Lactobacillus johnsonii, L. johnsonii HM-643): 2 µg/mL (≈ 3.61 µM); MIC Range (L. johnsonii; Table 6, L. johsonii (2 strains)): ≤1 µg/mL; MIC (L. jensenii; L. jensenii HM-105): ≤ 0.5 µg/mL; MIC (L. jensenii; L. jensenii HM-372): ≤ 0.5 µg/mL; MIC (L. jensenii; L. jensenii HM-374): 1 µg/mL (≈ 1.8 µM); MIC (L. jensenii; L. jensenii HM-639): ≤ 0.5 µg/mL; MIC (L. jensenii; L. jensenii HM-640): ≤ 0.5 µg/mL; MIC (L. jensenii; L. jensenii HM-645): ≤ 0.5 µg/mL; MIC (L. jensenii; L. jensenii HM-646): ≤ 0.5 µg/mL; MIC Range (L. jensenii; Table 6, L. jensenii (7 strains)): ≤1 to 2 µg/mL; MIC Range (Staphylococcus aureus): 2 µg/mL (≈ 3.61 µM); MIC Range ([1]; Bacteroides adolescentis (2 strains)): 0.125 µg/mL (≈ 0.225 µM); MIC Range ([1]; Bacteroides breve (2 strains)): 1 to 4 µg/mL; MIC Range ([1]; Bacteroides longum (2 strains)): 4 µg/mL (≈ 7.21 µM); MIC Range [2]: 0.125 µg/mL (≈ 0.225 µM); MIC Range (Lactobacillus casei): 16 µg/mL (≈ 28.9 µM); MIC Range (Lactobacillus rhamnosus): 16 µg/mL (≈ 28.9 µM); MIC Range (Bacteroides dorei): 4 to 16 µg/mL; MIC Range (Escherichia coli): 0.03 µg/mL (≈ 0.0541 µM); MIC Range (Enterococcus faecium): 8 µg/mL (≈ 14.4 µM); MIC Range (Enterococcus faecalis): 8 µg/mL (≈ 14.4 µM); MIC Range (Lactobacillus brevis): 0.5 µg/mL (≈ 0.902 µM); MIC50 (N. gonorrhoeae isolates; [6]): 0.03 µg/mL (≈ 0.0541 µM); MIC90 (N. gonorrhoeae isolates; [6]): 0.06 µg/mL (≈ 0.108 µM); MIC50 (N. gonorrhoeae isolates; [7]): 0.03 µg/mL (≈ 0.0541 µM); MIC90 (N. gonorrhoeae isolates; [7]): 0.06 µg/mL (≈ 0.108 µM); MIC (N. gonorrhoeae isolates; Neisseria gonorrhoeae, 103 N. gonorrhoeae isolates, read-out: highest MIC value): 2 µg/mL (≈ 3.61 µM); MIC Range (N. gonorrhoeae isolates; Table 1, 104 N. gonorrhoeae isolates): 0.001 to 2 µg/mL; MIC Range (N. gonorrhoeae isolates; Table 3, 103 N. gonorrhoeae isolates with different resistance profiles): 0.001 to 2 µg/mL; MIC ([3]; strain CDC-174, agar dilution): 0.25 µg/mL (≈ 0.451 µM); MIC ([3]; strain CDC-179, agar dilution): 0.015 µg/mL (≈ 0.027 µM); MIC ([3]; strain CDC-181, agar dilution): 0.06 µg/mL (≈ 0.108 µM); MIC ([3]; strain WHO-L, agar dilution): 0.5 µg/mL (≈ 0.902 µM); MIC ([3]; strain WHO-X, agar dilution): 2 µg/mL (≈ 3.61 µM); MIC ([3]; strain WHO-Y, agar dilution): 1 µg/mL (≈ 1.8 µM); MIC ([3]; strain WHO-Z, agar dilution): 0.5 µg/mL (≈ 0.902 µM); MIC Range (N. lactamica): 0.125 µg/mL (≈ 0.225 µM); MIC Range (N. mucosa): 0.125 µg/mL (≈ 0.225 µM); MIC Range (N. flavescens): 0.125 µg/mL (≈ 0.225 µM); MIC [4]: < 1 µg/mL; ability to clear intracellular N. gonorrhoeae [5]: unable to clear intracellular N. gonorrhoeae; MIC (L. gasseri; L. gasseri HM-407): ≤ 0.5 µg/mL; MIC (L. gasseri; L. gasseri HM-642): 2 µg/mL (≈ 3.61 µM); MIC (L. gasseri; L. gasseri HM-644): 1 µg/mL (≈ 1.8 µM); MIC (L. gasseri; L. gasseri HM-647): 1 µg/mL (≈ 1.8 µM); MIC Range (L. gasseri; Table 6, L. gasseri (4 strains)): ≤1 µg/mL; PAE (N. gonorrhoeae; strain FA 1090): 4 h; PAE (N. gonorrhoeae; strain WHO P): 8 h; PAE (N. gonorrhoeae; strain WHO Y): 6 h; MIC (L. crispatus; L. crispatus HM-103): 2 µg/mL (≈ 3.61 µM); MIC (L. crispatus; L. crispatus HM-371): 1 µg/mL (≈ 1.8 µM); MIC (L. crispatus; L. crispatus HM-638): 4 µg/mL (≈ 7.21 µM); MIC Range (L. crispatus; Table 6, L. crispatus (3 strains)): ≤1 to 2 µg/mL
